Organism: Rattus norvegicus
Assay: Open TG-GATES - Regimen: Single
Assay type: toxicity, organism-based, Sprague-Dawley
Parameters: regimen Single, gender Male, age 6 weeks
Conditions: in vivo, po, 15 mg/kg, route gavage, dose level High; for APTT / Bas / Eos / Fbg / Hb / Ht / Lym / MCH / MCHC / MCV / Mono / Neu / PT / Plat / RBC / Ret / WBC: tissue Blood; for KIDNEY_L / KIDNEY_R / KIDNEY_TOTAL: tissue Kidney; for ALP / ALT / AST / CRE / Cl / DBIL / GLC / IP / K / LDH / Na / PL / RALB / TBIL / TC / TG / TP / gamma-GTP: tissue Plasma

## COc1cc2c(c(OC)c1OC)-c1ccc(OC)c(=O)cc1[C@@H](NC(C)=O)CC2 [COLCHICINE]
3 h
  TERMINAL_BW: 219.9 g
  APTT: 17.2 s
  Bas: 0%
  Eos: 0.8%
  Fbg: 212.4 mg/dL
  Hb: 13.4 g/dL
  Ht: 40.8%
  Lym: 76.2%
  MCH: 21.9 pg
  MCHC: 33%
  MCV: 66.3 fL
  Mono: 13%
  Neu: 10%
  PT: 12.3 s
  Plat: 111.2 x10_4/uL
  RBC: 614.8 x10_4/ul
  Ret: 9.9%
  WBC: 105.1 x10_2/uL
  KIDNEY_L: 1 g
  KIDNEY_R: 1 g
  KIDNEY_TOTAL: 2 g
  ALP: 859.4 IU/L
  ALT: 59.8 IU/L
  AST: 152.8 IU/L
  CRE: 0.5 mg/dL
  Cl: 105.2 meq/L
  DBIL: 0.03 mg/dL
  GLC: 184.8 mg/dL
  IP: 9.3 mg/dL
  K: 4.6 meq/L
  LDH: 377.8 IU/L
  Na: 138.6 meq/L
  PL: 113.4 mg/dL
  RALB: 3.7 g/dL
  TBIL: 0.4 mg/dL
  TC: 75.2 mg/dL
  TG: 21.4 mg/dL
  TP: 5.6 g/dL
  gamma-GTP: 2.4 IU/L
6 h
  TERMINAL_BW: 220.6 g
  APTT: 17.3 s
  Bas: 0%
  Eos: 0.8%
  Fbg: 215 mg/dL
  Hb: 14.5 g/dL
  Ht: 44.5%
  Lym: 69.6%
  MCH: 21.2 pg
  MCHC: 32.7%
  MCV: 65 fL
  Mono: 6.2%
  Neu: 24%
  PT: 14.1 s
  Plat: 109.9 x10_4/uL
  RBC: 684.6 x10_4/ul
  Ret: 8.3%
  WBC: 68.3 x10_2/uL
  KIDNEY_L: 1 g
  KIDNEY_R: 1 g
  KIDNEY_TOTAL: 2 g
  ALP: 1105.6 IU/L
  ALT: 257.8 IU/L
  AST: 651.4 IU/L
  CRE: 0.5 mg/dL
  Cl: 104.2 meq/L
  DBIL: 0.1 mg/dL
  GLC: 174.8 mg/dL
  IP: 9.5 mg/dL
  K: 4.8 meq/L
  LDH: 1373 IU/L
  Na: 139.8 meq/L
  PL: 101.2 mg/dL
  RALB: 3.7 g/dL
  TBIL: 0.5 mg/dL
  TC: 66.8 mg/dL
  TG: 12.2 mg/dL
  TP: 5.5 g/dL
  gamma-GTP: 2 IU/L
9 h
  TERMINAL_BW: 217.2 g
  APTT: 17.8 s
  Bas: 0%
  Eos: 0.6%
  Fbg: 203.8 mg/dL
  Hb: 14.9 g/dL
  Ht: 45.2%
  Lym: 50.6%
  MCH: 21.1 pg
  MCHC: 32.8%
  MCV: 64.3 fL
  Mono: 12.2%
  Neu: 36.8%
  PT: 14.8 s
  Plat: 99 x10_4/uL
  RBC: 704.2 x10_4/ul
  Ret: 7.7%
  WBC: 52.6 x10_2/uL
  KIDNEY_L: 1 g
  KIDNEY_R: 1 g
  KIDNEY_TOTAL: 1.9 g
  ALP: 1469.6 IU/L
  ALT: 302.8 IU/L
  AST: 623.8 IU/L
  CRE: 0.5 mg/dL
  Cl: 101.8 meq/L
  DBIL: 0.3 mg/dL
  GLC: 171 mg/dL
  IP: 8.1 mg/dL
  K: 4.7 meq/L
  LDH: 1091.2 IU/L
  Na: 137 meq/L
  PL: 126 mg/dL
  RALB: 3.8 g/dL
  TBIL: 0.6 mg/dL
  TC: 86.2 mg/dL
  TG: 9.4 mg/dL
  TP: 5.5 g/dL
  gamma-GTP: 2 IU/L
24 h
  TERMINAL_BW: 208.7 g
  APTT: 18 s
  Bas: 0%
  Eos: 0.6%
  Fbg: 171 mg/dL
  Hb: 15.6 g/dL
  Ht: 47.7%
  Lym: 73.4%
  MCH: 20.5 pg
  MCHC: 32.9%
  MCV: 62.4 fL
  Mono: 9.8%
  Neu: 16.2%
  PT: 12.5 s
  Plat: 121.1 x10_4/uL
  RBC: 763.8 x10_4/ul
  Ret: 6.3%
  WBC: 78.2 x10_2/uL
  KIDNEY_L: 1 g
  KIDNEY_R: 1 g
  KIDNEY_TOTAL: 2 g
  ALP: 1599.2 IU/L
  ALT: 160.4 IU/L
  AST: 350.8 IU/L
  CRE: 0.6 mg/dL
  Cl: 104 meq/L
  DBIL: 0.1 mg/dL
  GLC: 176 mg/dL
  IP: 7.8 mg/dL
  K: 5.2 meq/L
  LDH: 172.4 IU/L
  Na: 136.8 meq/L
  PL: 116.4 mg/dL
  RALB: 3.3 g/dL
  TBIL: 0.5 mg/dL
  TC: 60.8 mg/dL
  TG: 16.8 mg/dL
  TP: 5.1 g/dL
  gamma-GTP: 1.4 IU/L
